Laboratory results taken from patent US9938273B2 (Plexxikon Inc., priority 2015, dated 2018).

These compounds were tested against T1, FLT3-D835Y (Homo sapiens, UniProt P36888, D835Y) (assay: AlphaScreen kinase assay with recombinant enzyme, FLT3-D835Y). Conditions: 8pt, GMean.
T1 construct: purchased Invitrogen PV3967
T1 sequence (P36888 27-993 D835Y): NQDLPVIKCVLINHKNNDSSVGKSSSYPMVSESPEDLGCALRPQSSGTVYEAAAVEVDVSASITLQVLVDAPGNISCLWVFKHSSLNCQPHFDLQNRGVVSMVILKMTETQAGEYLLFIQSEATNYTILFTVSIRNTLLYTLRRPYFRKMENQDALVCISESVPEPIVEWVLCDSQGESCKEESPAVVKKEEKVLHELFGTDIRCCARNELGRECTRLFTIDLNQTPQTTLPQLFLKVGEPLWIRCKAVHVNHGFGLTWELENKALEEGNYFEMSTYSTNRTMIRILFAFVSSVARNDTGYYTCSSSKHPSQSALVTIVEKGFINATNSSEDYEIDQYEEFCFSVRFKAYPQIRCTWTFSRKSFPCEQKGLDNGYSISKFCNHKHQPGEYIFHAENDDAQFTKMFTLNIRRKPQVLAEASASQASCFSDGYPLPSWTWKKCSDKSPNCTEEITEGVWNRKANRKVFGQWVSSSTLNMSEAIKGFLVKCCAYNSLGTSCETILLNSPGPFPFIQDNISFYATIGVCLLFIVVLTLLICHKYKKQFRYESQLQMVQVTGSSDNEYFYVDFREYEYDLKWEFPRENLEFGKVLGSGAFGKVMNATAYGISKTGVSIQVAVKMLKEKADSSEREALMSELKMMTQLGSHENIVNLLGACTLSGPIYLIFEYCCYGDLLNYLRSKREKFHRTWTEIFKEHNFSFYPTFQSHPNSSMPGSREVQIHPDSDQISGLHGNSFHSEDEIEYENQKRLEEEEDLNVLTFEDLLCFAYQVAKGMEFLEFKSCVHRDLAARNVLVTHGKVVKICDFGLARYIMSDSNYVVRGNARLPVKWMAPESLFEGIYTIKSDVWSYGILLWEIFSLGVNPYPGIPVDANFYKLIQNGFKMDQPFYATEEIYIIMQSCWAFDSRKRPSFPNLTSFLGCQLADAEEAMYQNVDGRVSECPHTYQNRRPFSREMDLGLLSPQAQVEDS
Assay type: biochemical
Protocol: In order to determine the effect of compounds on FLT3 catalytic activity, kinase assays using recombinant enzymes and AlphaScreen® technology have been established. The catalytic activity of c-kit activity was also measured to determine selectivity of the compounds. When the kinases are catalytically active, they phosphorylate a biotinylated peptide substrate on tyrosine residues. Using AlphaScreen® technology, the ability of the compounds to affect the catalytic activity of the kinases can be measured quantitatively. The peptide substrate is immobilized by the AlphaScreen® Streptavidin Donor beads and, upon phosphorylation by a tyrosine kinase, can bind to AlphaScreen® Anti-Phosphotyrosine (PY20) Acceptor beads. Upon excitation of these beads with laser light at 680 nm, singlet oxygen is produced. This singlet oxygen is rapidly quenched, unless the AlphaScreen® Anti-Phosphotyrosine (PY20) Acceptor beads are in close proximity, in which case a proximity signal can be measured at 580 nm. In the presence of catalytic activity, there is a very strong proximity signal. Selective kinase inhibitors affect a decrease in this proximity signal through a decrease in tyrosine phosphorylation of the peptide substrate.
The assay was performed as summarized below.
Poly (Glu4-Tyr) Peptide, biotin conjugate [Biotin-GG(EEEEY)10EE] (SEQ ID NO: 4)
Final concentration=30 nM
Final concentration for IC50 determination=10 μM (FLT3-D835Y or FLT3-ITD) or 100 μM (c-KIT)
AlphaScreen® Phosphotyrosine (PY20) Assay Kit
Final concentration=10 μg/mL
Dilute compounds in DMSO to 20× final concentration.
Add 1 μl of compound to each well of 384 well reaction plate (Perkin Elmer #6005359).
Mix enzyme and Poly (Glu4-Tyr) Peptide substrate at 1.33× final concentration in assay buffer.
Mix ATP at 5× final concentration in assay buffer.
Add 15 μL enzyme/substrate mixture to the reaction plate.
Add 4 μL of ATP to the reaction plate.
Mix Streptavidin Donor beads at 6× final concentration in Stop/Detection buffer.
Add 5 μL Streptavidin Donor beads to the reaction plate. Centrifuge 1 minute, shake to mix, and incubate at room temperature for 20 minutes.
Mix Anti-Phosphotyrosine (PY20) Acceptor beads at 6× final concentration in Stop/Detection buffer.
Add 5 μL Anti-Phosphotyrosine (PY20) beads to the reaction plate.
Centrifuge 1 minute, shake to mix, and incubate at room temperature for 60 minutes.
Read plate on Wallac EnVision™ 2103 Multilabel Reader.

IC50 | SMILES
0.0001 to 10 µM | O=C(c1cccc(-c2cnc3[nH]c(-c4ccccc4)cc3c2)n1)N1CCC(F)(F)C1 [Compound P-0093, (3,3-difluoropyrrolidin-1-yl)-[6-(2-phenyl-1H-pyrrolo[2,3-b]pyridin-5-yl)-2-pyridyl]methanone]
0.0001 to 10 µM | COC1CCN(C(=O)c2cccc(-c3cnc4[nH]c(-c5ccccc5)cc4c3)n2)C1 (stereo not drawn) [Compound P-0095, (3-methoxypyrrolidin-1-yl)-[6-(2-phenyl-1H-pyrrolo[2,3-b]pyridin-5-yl)-2-pyridyl]methanone]
0.0001 to 10 µM | CNC(=O)C1CCN(C(=O)c2cccc(-c3cnc4[nH]c(-c5ccccc5)cc4c3)n2)C1 (stereo not drawn) [Compound P-0096, N-methyl-1-[6-(2-phenyl-1H-pyrrolo[2,3-b]pyridin-5-yl)pyridine-2-carbonyl]pyrrolidine-3-carboxamide]
0.0001 to 10 µM | O=C(c1cccc(-c2cnc3[nH]c(-c4ccccc4)cc3c2)n1)N1CCC(n2ccnc2)C1 (stereo not drawn) [Compound P-0097, (3-imidazol-1-ylpyrrolidin-1-yl)-[6-(2-phenyl-1H-pyrrolo[2,3-b]pyridin-5-yl)-2-pyridyl]methanone]
0.0001 to 10 µM | N#CCCNC(=O)c1cccc(-c2cnc3[nH]c(-c4ccccc4)cc3c2)n1 [Compound P-0099, N-(2-cyanoethyl)-6-(2-phenyl-1H-pyrrolo[2,3-b]pyridin-5-yl)pyridine-2-carboxamide]
0.0001 to 10 µM | CC(C)(C#N)CNC(=O)c1cccc(-c2cnc3[nH]c(-c4ccccc4)cc3c2)n1 [Compound P-0100, N-(2-cyano-2-methyl-propyl)-6-(2-phenyl-1H-pyrrolo[2,3-b]pyridin-5-yl)pyridine-2-carboxamide]
0.0001 to 10 µM | N#CC1CCN(C(=O)c2cccc(-c3cnc4[nH]c(-c5ccccc5)cc4c3)n2)C1 (stereo not drawn) [Compound P-0105, 1-[6-(2-phenyl-1H-pyrrolo[2,3-b]pyridin-5-yl)pyridine-2-carbonyl]pyrrolidine-3-carbonitrile]
0.0001 to 10 µM | CS(=O)(=O)N1CCC(NS(=O)(=O)c2cccc(-c3cnc4[nH]c(-c5ccccc5)cc4c3)n2)C1 (stereo not drawn) [Compound P-0107, N-(1-methylsulfonylpyrrolidin-3-yl)-6-(2-phenyl-1H-pyrrolo[2,3-b]pyridin-5-yl)pyridine-2-sulfonamide]
0.0001 to 10 µM | N#C[C@H]1CCN(C(=O)c2cccc(-c3cnc4[nH]c(-c5ccccc5)cc4c3)n2)C1 [Compound P-0117, (3S)-1-[6-(2-phenyl-1H-pyrrolo[2,3-b]pyridin-5-yl)pyridine-2-carbonyl]pyrrolidine-3-carbonitrile]
0.0001 to 10 µM | CN(CCC#N)C(=O)c1cccc(-c2cnc3[nH]c(-c4ccccc4)cc3c2)n1 [Compound P-0119, N-(2-cyanoethyl)-N-methyl-6-(2-phenyl-1H-pyrrolo[2,3-b]pyridin-5-yl)pyridine-2-carboxamide]
0.0001 to 10 µM | N#CC1CCN(C(=O)c2cccc(-c3cnc4[nH]c(C5=CCCCC5)cc4c3)n2)C1 (stereo not drawn) [Compound P-0120, 1-[6-[2-(cyclohexen-1-yl)-1H-pyrrolo[2,3-b]pyridin-5-yl]pyridine-2-carbonyl]pyrrolidine-3-carbonitrile]
0.0001 to 10 µM | N#CC1CCN(S(=O)(=O)c2cccc(-c3cnc4[nH]c(-c5ccccc5)cc4c3)n2)C1 (stereo not drawn) [Compound P-0121, 1-[[6-(2-phenyl-1H-pyrrolo[2,3-b]pyridin-5-yl)-2-pyridyl]sulfonyl]pyrrolidine-3-carbonitrile]
0.0001 to 10 µM | N#CCCNC(=O)c1cccc(-c2cnc3[nH]c(-c4ccccc4)c(Cl)c3c2)n1 [Compound P-0125, 6-(3-chloro-2-phenyl-1H-pyrrolo[2,3-b]pyridin-5-yl)-N-(2-cyanoethyl)pyridine-2-carboxamide]
0.0001 to 10 µM | CC(C)(C#N)CNC(=O)c1cccc(-c2cnc3[nH]c(-c4ccccc4)c(Br)c3c2)n1 [Compound P-0126, 6-(3-bromo-2-phenyl-1H-pyrrolo[2,3-b]pyridin-5-yl)-N-(2-cyano-2-methyl-propyl)pyridine-2-carboxamide]
0.0001 to 10 µM | CC(C)(C#N)CNC(=O)c1cccc(-c2cnc3[nH]c(-c4ccccc4)c(I)c3c2)n1 [Compound P-0127, N-(2-cyano-2-methyl-propyl)-6-(3-iodo-2-phenyl-1H-pyrrolo[2,3-b]pyridin-5-yl)pyridine-2-carboxamide]
0.0001 to 10 µM | Cc1cc(C#N)ccc1-c1cc2cc(-c3cccc(C(=O)N4CCC(C#N)C4)n3)cnc2[nH]1 (stereo not drawn) [Compound P-0130, 1-[6-[2-(4-cyano-2-methyl-phenyl)-1H-pyrrolo[2,3-b]pyridin-5-yl]pyridine-2-carbonyl]pyrrolidine-3-carbonitrile]
0.0001 to 10 µM | N#Cc1cccc(-c2cc3cc(-c4cccc(C(=O)N5CCC(C#N)C5)n4)cnc3[nH]2)c1 (stereo not drawn) [Compound P-0133, 1-[6-[2-(3-cyanophenyl)-1H-pyrrolo[2,3-b]pyridin-5-yl]pyridine-2-carbonyl]pyrrolidine-3-carbonitrile]
0.0001 to 10 µM | CC(C)(C)OC(=O)N1CC=C(c2cc3cc(-c4cccc(C(=O)N5CCC(C#N)C5)n4)cnc3[nH]2)C1 (stereo not drawn) [Compound P-0135, tert-butyl 3-[5-[6-(3-cyanopyrrolidine-1-carbonyl)-2-pyridyl]-1H-pyrrolo[2,3-b]pyridin-2-yl]-2,5-dihydropyrrole-1-carboxylate]
0.0001 to 10 µM | N#CC1(NC(=O)c2cccc(-c3cnc4[nH]c(-c5ccccc5)c(Cl)c4c3)n2)CC1 [Compound P-0139, 6-(3-chloro-2-phenyl-1H-pyrrolo[2,3-b]pyridin-5-yl)-N-(1-cyanocyclopropyl)pyridine-2-carboxamide]
0.0001 to 10 µM | N#CC1CCN(C(=O)c2cccc(-c3cnc4[nH]c(C5=CCOCC5)c(Cl)c4c3)n2)C1 (stereo not drawn) [Compound P-0142, 1-[6-[3-chloro-2-(3,6-dihydro-2H-pyran-4-yl)-1H-pyrrolo[2,3-b]pyridin-5-yl]pyridine-2-carbonyl]pyrrolidine-3-carbonitrile]
0.0001 to 10 µM | N#CCCNC(=O)c1cccc(-c2cnc3[nH]c(-c4ccccc4)c(I)c3c2)n1 [Compound P-0143, N-(2-cyanoethyl)-6-(3-iodo-2-phenyl-1H-pyrrolo[2,3-b]pyridin-5-yl)pyridine-2-carboxamide]
0.0001 to 10 µM | N#CC1(CNC(=O)c2cccc(-c3cnc4[nH]c(-c5ccccc5)c(Cl)c4c3)n2)CC1 [Compound P-0148, 6-(3-chloro-2-phenyl-1H-pyrrolo[2,3-b]pyridin-5-yl)-N-[(1-cyanocyclopropyl)methyl]pyridine-2-carboxamide]
0.0001 to 10 µM | O=C(NC1(C(F)(F)F)CCCC1)c1cccc(-c2cnc3[nH]c(-c4ccccc4)cc3c2)n1 [Compound P-0149, 6-(2-phenyl1H-pyrrolo[2,3-b]pyridin-5-yl)-N-[1-(trifluoromethyl)cyclopentyl]pyridine-2-carboxamide]
0.0001 to 10 µM | O=C(NC1(CO)CC1)c1cccc(-c2cnc3[nH]c(-c4ccccc4)cc3c2)n1 [Compound P-0151, N-[1-(hydroxymethyl)cyclopropyl]-6-(2-phenyl-1H-pyrrolo[2,3-b]pyridin-5-yl)pyridine-2-carboxamide]
